These results are taken from the Deep4Chem optical property database.

The nature of the series: photoluminescence quantum yield (fraction); solvent given as SMILES.

For the setting “in ClCCl”, `CC(C)(C)c1ccc(-n2c(-c3ccc(N(c4ccc(-c5ccc(N(c6ccc(-c7nc8c9ccccc9c9ccccc9c8n7-c7ccc(C(C)(C)C)cc7)cc6)c6ccc(-c7nc8c9ccccc9c9ccccc9c8n7-c7ccc(C(C)(C)C)cc7)cc6)cc5)cc4)c4ccc(-c5nc6c7ccccc7c7ccccc7c6n5-c5ccc(C(C)(C)C)cc5)cc4)cc3)nc3c4ccccc4c4ccccc4c32)cc1` had a photoluminescence quantum yield of 0.451.
On to `Nc1nc(/C=C/c2ccc(N(c3ccccc3)c3ccccc3)cc2)cc(/C=C/c2ccc(N(c3ccccc3)c3ccccc3)cc2)n1`, for which the photoluminescence quantum yield amounted to 0.88 (in Cc1ccccc1) and 0.73 (in ClC(Cl)Cl).
The compound `CCCCN1C(=O)c2ccc3c4ccc5c6c(cc(-c7ccc(C(=C(c8ccccc8)c8ccccc8)c8ccccc8)cc7)c(c7ccc(c2c37)C1=O)c64)C(=O)N(CCCC)C5=O` returned a photoluminescence quantum yield (in ClCCl) of 0.022.
On to `CCCCCCCCCCCn1cccc1C1=[N+]2C(=Cc3c(C)cc(C)n3[B-]2(F)F)c2ccccc21`, for which the photoluminescence quantum yield worked out at 0.98 (in C1CCOC1); 0.99 (in CC#N); 0.99 (in CCCCCC); 0.96 (in CO); 0.99 (in Cc1ccccc1); 0.99 (in ClCCl).
In the case of `CCCCCCNC(=O)c1sc(-c2ccc(-c3cc(-c4ccc(C(C)(C)C)cc4)c(C(=O)NCCCCCC)s3)s2)cc1-c1ccc(C(C)(C)C)cc1`, where the note is “in ClCCl”, the photoluminescence quantum yield came to 0.31.
For the compound `Cc1nc(-c2ccc(N3c4ccccc4C(c4ccccc4)(c4ccccc4)c4ccccc43)cc2)cc(-c2ccc(N3c4ccccc4C(c4ccccc4)(c4ccccc4)c4ccccc43)cc2)n1`, the photoluminescence quantum yield (in Cc1ccccc1) was 0.54 and the photoluminescence quantum yield (in O=P(c1ccccc1)(c1ccccc1)c1ccc2oc3ccc(P(=O)(c4ccccc4)c4ccccc4)cc3c2c1) is 0.92.
`COc1cc2cc(OC)c(C#Cc3ccc([N+](=O)[O-])cc3)cc2cc1C#Cc1ccc([N+](=O)[O-])cc1`: the photoluminescence quantum yield by setting is: (in C1CCOC1) 0.009; (in ClC(Cl)Cl) 0.053; (in ClCCl) 0.019.
Under “in CN(C)C=O”, `CCN(CC)c1ccc(-c2nc(Oc3ccc(-c4nc5ccccc5s4)cc3)nc(Oc3ccc(-c4nc5ccccc5s4)cc3)n2)cc1` gave a photoluminescence quantum yield of 0.155.
In turn, `C=C(C)C(CN1C(=O)c2cccc3c2c(cc2nc(C)oc23)C1=O)OO` (stereo not given) returned a photoluminescence quantum yield (in CCO) of 0.061.
`O=C(O)c1ccccc1` had a photoluminescence quantum yield (in O) of 0.001.
`CCCCCC(=O)c1ccc2c3c(sc2c1)-c1ccccc1P3(=O)c1ccccc1` (stereo not given): the photoluminescence quantum yield (in ClCCl) was 0.15.
For `CCCCCCCCOc1ccc(-c2c3c4n(c(-c5ccc(OCCCCCCCC)cc5)c3c3n2[B-](c2ccccc2)(c2ccccc2)[n+]2c(ccc5cc(C(C)(C)C)ccc52)C=3C#N)[B-](c2ccccc2)(c2ccccc2)[n+]2c(ccc3cc(C(C)(C)C)ccc32)C=4C#N)cc1`, the photoluminescence quantum yield (in ClC(Cl)Cl) is 0.53.
`C1=C/C2=C(\c3ccccc3)c3c[nH]c(c3)/C(c3ccccc3)=C3/C=CC(=N3)/C(c3ccccc3)=c3/cc/c([nH]3)=C(\c3ccccc3)C1=N2` returned a photoluminescence quantum yield (in CC(=O)N(C)C) of 0.046.
Consider `COc1ccc(NC(=O)C(C(=O)Nc2ccc(OC)cc2)C(c2cc(F)ccc2O)c2c[nH]c3ccc(OC)cc23)cc1` (stereo not given), for which the photoluminescence quantum yield (in CS(C)=O) was found to be 0.018.
Compound `Clc1ccc(N2c3sc4ccccc4c3Sc3c2sc2ccccc32)cc1` displayed a photoluminescence quantum yield (in ClCCl) of 0.18.
Compound `c1ccc(-c2nc3c(c4c2-c2ccccc2CC4)-c2ccccc2CC3)cc1` showed a photoluminescence quantum yield (in C1CCOC1) of 0.009; a photoluminescence quantum yield (in CC#N) of 0.001; a photoluminescence quantum yield (in CCCCCC) of 0.001; a photoluminescence quantum yield (in CCOC(C)=O) of 0.03; a photoluminescence quantum yield (in CO) of 0.002; a photoluminescence quantum yield (in CS(C)=O) of 0.003. Besides, the photoluminescence quantum yield came to 0.002 (in Cc1ccccc1) and 0.01 (in ClCCl).
For `c1ccccc1`, the photoluminescence quantum yield (in C1CCCCC1) turned out to be 0.14.
`F[B-]1(F)OC(c2ccccc2)=Cc2cc3[n+](c[n+]21)[B-](F)(F)OC(c1ccccc1)=C3` displayed a photoluminescence quantum yield (in ClCCl) of 0.55.
Consider `O=C(c1ccc(N(c2ccccc2)c2ccccc2)cc1)[C@H]1[C@H](c2cccs2)C[C@](O)(c2ccccn2)C[C@]1(O)c1ccccn1`, for which the photoluminescence quantum yield was determined as 0.24 (in C1CCOC1); 0.01 (in CC#N); 0.01 (in CCO); 0.35 (in CCOC(C)=O); 0.02 (in CN(C)C=O); 0.22 (in ClCCl). In addition, the photoluminescence quantum yield (in c1ccccc1) stood at 0.9.
Turning to `Fc1ccc(C#Cc2nc(C#Cc3ccc(F)cc3)c(C#Cc3ccc(F)cc3)c(C#Cc3ccc(F)cc3)c2C#Cc2ccc(F)cc2)cc1`, the photoluminescence quantum yield (in ClCCl) amounted to 0.47.
For `CCC12C(=C3C(=C4c5ccc(-c6ccc(C(C)=O)cc6)cc5S(=O)(=O)C41CC)C(F)(F)C(F)(F)C3(F)F)c1ccc(-c3ccc(C(C)=O)cc3)cc1S2(=O)=O` (stereo not given), the photoluminescence quantum yield (in C1COCCO1) stood at 0.87.
`O=C1c2ccccc2C2=Nc3ccc4ccccc4[n+]3[B-](F)(F)N12` gave a photoluminescence quantum yield (in ClCCl) of 0.74.
As for `CC(C)(C)/C=C/C1=[N+]2C(=C(c3c4ccccc4cc4ccccc34)c3ccc(/C=C/C(C)(C)C)n3[B-]2(F)F)C=C1`, the photoluminescence quantum yield (in ClC(Cl)Cl) was found to be 0.58.
In turn, `Nc1ccc2c(c1)C(=O)N(C13C[C@H]4C[C@@H](C1)C[C@@H](C3)C4)C2=O` showed a photoluminescence quantum yield (in C1CCCCC1) of 0.38; a photoluminescence quantum yield (in C1CCOC1) of 0.59; a photoluminescence quantum yield (in CC#N) of 0.62; a photoluminescence quantum yield (in CCOC(C)=O) of 0.58; a photoluminescence quantum yield (in CO) of 0.17; a photoluminescence quantum yield (in CS(C)=O) of 0.8. Besides, the photoluminescence quantum yield (in Cc1ccccc1) was 0.8 and the photoluminescence quantum yield (in ClCCl) was 0.85.
Regarding `C(=C\c1ccc2ccccc2c1)/c1ccc(N(c2ccccc2)c2ccccc2)cc1`, the photoluminescence quantum yield by setting is: (in CC#N) 0.42; (in CCCCCC) 0.61.
The compound `C[Si]1(C)O[Si](C)(C)c2cc3c(-c4ccccc4)c4cc(Cl)ccc4nc3cc21` showed a photoluminescence quantum yield (in ClCCl) of 0.34.
Take `N#Cc1c(-n2c3ccc(Br)cc3c3cc(Br)ccc32)c(-n2c3ccc(Br)cc3c3cc(Br)ccc32)c(C#N)c(-n2c3ccc(Br)cc3c3cc(Br)ccc32)c1-n1c2ccc(Br)cc2c2cc(Br)ccc21`: the photoluminescence quantum yield (in Cc1ccccc1) was determined as 0.45.
`Cn1cc(/C=C/C(=O)c2ccccc2)c2ccccc21`: the photoluminescence quantum yield came to 0.1 (in C1CCOC1); 0.114 (in C1COCCO1); 0.343 (in CC#N); 0.329 (in CC(C)=O); 0.231 (in CC(C)O); 0.209 (in CCC(=O)CC). The photoluminescence quantum yield reads like this: (in CCCC#N) 0.217; (in CCCC(C)=O) 0.22; (in CCCCCCCCO) 0.345; (in CCCCCCO) 0.428; (in CCCCO) 0.333; (in CCCO) 0.5. Also, the photoluminescence quantum yield came out at 0.173 (in CCO); 0.245 (in CN(C)C=O); 0.162 (in CO); 0.62 (in CS(C)=O); 0.14 (in ClC(Cl)Cl); 0.394 (in ClCCl). In addition, the photoluminescence quantum yield worked out at 0.277 (in NC=O), 0.12 (in O) and 0.778 (in OC1CCCCC1).
As for `Cc1cc(C)c(B(c2ccc(N3c4ccccc4Oc4ccccc43)cc2)c2c(C)cc(C)cc2C)c(C)c1`, for the setting “in Cc1ccccc1”, the photoluminescence quantum yield was 0.87.
For the compound `CCCCCCC1(CCCCCC)c2cc(-c3nc(-c4ccc5c(c4)C(CCCCCC)(CCCCCC)c4cc(-n6c7ccc(C(C)(C)C)cc7c7cc(C(C)(C)C)ccc76)ccc4-5)nc(-c4ccc5c(c4)C(CCCCCC)(CCCCCC)c4cc(-n6c7ccc(C(C)(C)C)cc7c7cc(C(C)(C)C)ccc76)ccc4-5)n3)ccc2-c2ccc(-n3c4ccc(C(C)(C)C)cc4c4cc(C(C)(C)C)ccc43)cc21`, the photoluminescence quantum yield by setting is: (in C1CCOC1) 0.56; (in CCCCCC) 1; (in Cc1ccccc1) 0.99; (in ClCCl) 0.56.
Consider `CN(C)c1ccc2nc(/C=C/c3ccccc3)c(=O)oc2c1`, for which the photoluminescence quantum yield reads like this: (in C1CCCCC1) 0.77; (in C1COCCO1) 0.79; (in CC#N) 0.54; (in CC(C)=O) 0.71; (in CCCCCCC) 0.74; (in CCO) 0.55. Moreover, the photoluminescence quantum yield runs as follows: (in CCOC(C)=O) 0.75; (in CN(C)C=O) 0.66; (in CS(C)=O) 0.61; (in Cc1ccccc1) 0.77; (in ClC(Cl)Cl) 0.81; (in ClCCl) 0.81.
`Cc1cc(=O)cc(-c2ccc(-c3nc4ccccn4c3NC3CCCCC3)cc2)o1` came in with a photoluminescence quantum yield (in ClCCl) of 0.019.
Under “in ClCCl”, `Cc1cc2c3ccccc3[nH]c2c2[nH]c3ccccc3c12` returned a photoluminescence quantum yield of 0.075.
`CC[N+]1(CC)CN2C(C)=CC(C)=C(C(=O)[O-])C2=N1` showed a photoluminescence quantum yield (in CN(C)C=O) of 0.105 and a photoluminescence quantum yield (in O) of 0.783.
`c1cc2ccc3ccc4cc3c2cc1c1ccc2c(c1)c1cc(ccc1[C@]13OCCO[C@]21OCCO3)c1ccc2c(c1)c1cc4ccc1[C@]13OCCO[C@]21OCCO3`: the photoluminescence quantum yield (in Cc1ccccc1) stood at 0.63.
On to `O=C1NC(=O)c2c1c1c3ccccc3[nH]c1c1[nH]c3ccccc3c21`, for which the photoluminescence quantum yield was found to be 0.44 (in C1CCOC1); 0.33 (in CC#N); 0.25 (in CC(C)OC(C)C); 0.28 (in CCCCOCCCC); 0.26 (in CCO); 0.29 (in CCOC(C)=O). Besides, the photoluminescence quantum yield reads like this: (in CN(C)C=O) 0.25; (in ClCCl) 0.18.
Regarding `O=c1c2cc(I)ccc2nc2n1[B-](F)(F)[n+]1ccccc1-2`, the photoluminescence quantum yield reads like this: (in CC#N) 0.58; (in ClCCl) 0.73.
